Data set [1] can be described thus: Apparent permeability of the compound at 50 uM after 5 hrs by PAMPA method. The format is physicochemical. (PAMPA measures passive passage across an artificial lipid membrane.)
Data set [2] in a line: Apparent permeability from apical to basolateral side in human Caco2 cells by LC-MS analysis. It is filed as ADME, cell-based. The conditions noted are these: Caco-2.

Each structure is given as a SMILES string. Square brackets hold non-standard residues; d marks the D form. Peptide text beside a SMILES is read from it. NMeY = CN[C@@H](Cc1ccc(O)cc1)C(=O)O; NMeT = CN[C@H](C(=O)O)[C@@H](C)O; NMeL = CN[C@@H](CC(C)C)C(=O)O; Sar = CNCC(=O)O A value given as a limit tells only on which side of the number the result lay.

In general, Papp refers to the rate of passage across a membrane or cell layer, normalised by area and donor concentration. By Papp A→B is commonly meant the apparent permeability from the apical to the basolateral side of a cell layer.

Consider `CC(C)C[C@H]1C(=O)N2CCC[C@H]2C(=O)N[C@@H](Cc2ccc(O)cc2)C(=O)N(C)[C@H](C)C(=O)N(C)CC(=O)N[C@H](Cc2ccccc2)C(=O)N1C`, for which the Papp at 5 h, 50 µM in data set [1] amounted to 0.14 ×10⁻⁶ cm/s. In data set [2], the Papp A→B is below 0.14 ×10⁻⁶ cm/s.
As for `CC(C)C[C@@H]1NC(=O)[C@@H](CC(C)C)N(C)C(=O)[C@H](CC(C)C)NC(=O)[C@H](Cc2ccc(O)cc2)N(C)C(=O)[C@H]2CCCN2C(=O)[C@H](CC(C)C)NC1=O`, in data set [1], the Papp at 5 h, 50 µM worked out at 1.51 ×10⁻⁶ cm/s. For the same compound, the Papp A→B in data set [2] is 7.75 ×10⁻⁶ cm/s.
For `CC(C)C[C@@H]1NC(=O)[C@H](Cc2ccccc2)NC(=O)[C@H]([C@@H](C)O)N(C)C(=O)CN(C)C(=O)[C@H]([C@@H](C)O)NC(=O)[C@H](Cc2ccc(O)cc2)NC1=O` (cyclo(FLYT[Sar][NMeT])) the same measures were 0.01 ×10⁻⁶ cm/s and 0.1 ×10⁻⁶ cm/s.
On to `CC(C)C[C@@H]1NC(=O)[C@H](CC(C)C)N(C)C(=O)[C@H](Cc2ccc(O)cc2)NC(=O)[C@@H]2CCCN2C(=O)[C@H]2CCCN2C(=O)[C@@H](CC(C)C)NC1=O`, for which the Papp at 5 h, 50 µM in data set [1] turned out to be 0.29 ×10⁻⁶ cm/s. For the same compound, the Papp A→B in data set [2] turned out to be 1.04 ×10⁻⁶ cm/s.
`CC(C)C[C@@H]1NC(=O)[C@H](Cc2ccccc2)N(C)C(=O)CN(C)C(=O)[C@H](C)NC(=O)[C@H](Cc2ccc(O)cc2)N(C)C(=O)[C@H]2CCCN2C1=O`: the Papp at 5 h, 50 µM in data set [1] amounted to 0.35 ×10⁻⁶ cm/s. Also, the Papp A→B in data set [2] is 1.08 ×10⁻⁶ cm/s.
With `CC(C)C[C@@H]1NC(=O)[C@H](Cc2c[nH]c3ccccc23)NC(=O)[C@H]2CCCN2C(=O)[C@@H](CC(C)C)NC(=O)[C@@H](CC(C)C)NC(=O)[C@@H](CC(C)C)NC1=O`, the Papp at 5 h, 50 µM in data set [1] was 3.33 ×10⁻⁶ cm/s. The Papp A→B in data set [2] came to 9.46 ×10⁻⁶ cm/s.
On the same counts, the results for `CC(C)C[C@@H]1NC(=O)[C@@H](CC(C)C)N(C)C(=O)[C@@H](CC(C)C)N(C)C(=O)[C@H](Cc2ccc(O)cc2)NC(=O)[C@@H]2CCCN2C(=O)[C@@H](CC(C)C)NC1=O` are 0.67 ×10⁻⁶ cm/s and 11.9 ×10⁻⁶ cm/s.
On to `CC(C)C[C@@H]1NC(=O)[C@@H](CC(C)C)NC(=O)[C@H](CC(C)C)NC(=O)[C@H](Cc2ccc(O)cc2)N(C)C(=O)[C@H]2CCCN2C(=O)[C@H](CC(C)C)NC1=O` (cyclo(LL[dP][NMeY]L[dL])), for which, in data set [1], the Papp at 5 h, 50 µM stood at 1.29 ×10⁻⁶ cm/s. In addition, the Papp A→B in data set [2] was 9.13 ×10⁻⁶ cm/s.
As for `CC(C)C[C@@H]1NC(=O)[C@@H](CC(C)C)N(C)C(=O)[C@@H](CC(C)C)N(C)C(=O)[C@H](Cc2ccc(O)cc2)NC(=O)[C@@H]2CCCN2C(=O)[C@@H](CC(C)C)N(C)C1=O`, the Papp at 5 h, 50 µM in data set [1] stood at 0.1 ×10⁻⁶ cm/s. Moreover, in data set [2], the Papp A→B stood at 14.7 ×10⁻⁶ cm/s.
On the same counts, the results for `CC(C)C[C@@H]1NC(=O)CNC(=O)[C@H](Cc2ccccc2)NC(=O)[C@H](CC(N)=O)NC(=O)[C@H](Cc2ccc(O)cc2)NC(=O)[C@H](C)NC1=O` (cyclo(AYNFGL)) are 0.01 ×10⁻⁶ cm/s and 0.02 ×10⁻⁶ cm/s.
On the same counts, the results for `CC(C)C[C@@H]1NC(=O)[C@H](Cc2ccc(O)cc2)N(C)C(=O)[C@H]2CCCN2C(=O)[C@H](CC(C)C)NC(=O)[C@H](CC(C)C)N(C)C(=O)[C@@H](CC(C)C)NC1=O` are 1.31 ×10⁻⁶ cm/s and 11.3 ×10⁻⁶ cm/s.
For `CC(C)C[C@H]1NC(=O)[C@H](CC(C)C)N(C)C(=O)[C@H](CC(C)C)N(C)C(=O)[C@H](Cc2ccc(O)cc2)NC(=O)[C@@H]2CCCN2C(=O)[C@H]2CCCN2C1=O` the same measures were 1.11 ×10⁻⁶ cm/s and 5.45 ×10⁻⁶ cm/s.
`CC(C)C[C@@H]1NC(=O)[C@H](Cc2ccccc2)NC(=O)[C@@H](CC(C)C)N(C)C(=O)[C@H](CC(C)C)N(C)C(=O)[C@H](Cc2ccc(O)cc2)NC(=O)[C@@H]2CCCN2C1=O`: the Papp at 5 h, 50 µM in data set [1] was 0.41 ×10⁻⁶ cm/s. Moreover, in data set [2], the Papp A→B was found to be 12 ×10⁻⁶ cm/s.
On to `CC(C)C[C@@H]1NC(=O)[C@@H](Cc2ccccc2)NC(=O)CNC(=O)[C@@H](C)NC(=O)[C@H](Cc2ccc(O)cc2)NC(=O)[C@@H]2CCCN2C1=O`, for which the Papp at 5 h, 50 µM in data set [1] was determined as 0.01 ×10⁻⁶ cm/s. In data set [2], the Papp A→B turned out to be 0.09 ×10⁻⁶ cm/s.
For `CC(C)C[C@@H]1NC(=O)[C@H](Cc2ccc(O)cc2)NC(=O)[C@@H]2CCCN2C(=O)[C@H]2CCCN2C(=O)[C@@H](CC(C)C)NC(=O)[C@H](CC(C)C)NC1=O` the same measures were 0.09 ×10⁻⁶ cm/s and 0.1 ×10⁻⁶ cm/s.
Turning to `CC(C)C[C@@H]1NC(=O)[C@H](Cc2ccccc2)NC(=O)CNC(=O)[C@H](C)NC(=O)[C@H](Cc2ccc(O)cc2)NC(=O)[C@H]2CCCN2C1=O`, the Papp at 5 h, 50 µM in data set [1] is 0.01 ×10⁻⁶ cm/s. Moreover, in data set [2], the Papp A→B is 0.27 ×10⁻⁶ cm/s.
On the same counts, the results for `CC(C)C[C@@H]1NC(=O)[C@H](C(C)C)NC(=O)[C@H](Cc2c[nH]c3ccccc23)NC(=O)[C@H](Cc2ccccc2)NC(=O)[C@H](Cc2ccccc2)NC(=O)[C@@H]2CCCN2C1=O` (cyclo(FFWVLP)) are 0.37 ×10⁻⁶ cm/s and 0.24 ×10⁻⁶ cm/s.
Take `CC(C)C[C@@H]1NC(=O)[C@@H](CC(C)C)NC(=O)[C@H](Cc2ccccc2)NC(=O)CNC(=O)[C@@H](C)NC(=O)[C@H](Cc2ccc(O)cc2)NC1=O`: the Papp at 5 h, 50 µM in data set [1] is 0.02 ×10⁻⁶ cm/s. Besides, in data set [2], the Papp A→B came to 0.72 ×10⁻⁶ cm/s.
In the case of `CC(C)C[C@@H]1NC(=O)[C@H](Cc2ccc(O)cc2)NC(=O)[C@H]2CCCN2C(=O)[C@H](CC(C)C)NC(=O)[C@H](CC(C)C)N(C)C(=O)[C@@H](CC(C)C)NC1=O` (cyclo(L[dL][NMeL]L[dP]Y)), the Papp at 5 h, 50 µM in data set [1] was found to be 0.76 ×10⁻⁶ cm/s. The Papp A→B in data set [2] was found to be 7.83 ×10⁻⁶ cm/s.
For `CC[C@H](C)[C@@H]1NC(=O)[C@H](Cc2ccc(O)cc2)NC(=O)[C@H](Cc2ccccc2)NC(=O)CNC(=O)[C@H](C(C)C)NC(=O)CNC1=O` (cyclo(FYIGVG)) the same measures were 0.01 ×10⁻⁶ cm/s and 0.06 ×10⁻⁶ cm/s.
As for `CC(C)C[C@@H]1NC(=O)[C@H](Cc2ccccc2)NC(=O)CN(C)C(=O)[C@H](CC(C)C)N(C)C(=O)[C@H](Cc2ccc(O)cc2)NC(=O)[C@@H]2CCCN2C1=O` (cyclo(FLPY[NMeL][Sar])), in data set [1], the Papp at 5 h, 50 µM came to 0.1 ×10⁻⁶ cm/s. Besides, the Papp A→B in data set [2] amounted to 0.1 ×10⁻⁶ cm/s.
Consider `C[C@@H]1NC(=O)[C@H](C)N(C)C(=O)[C@H](C)NC(=O)[C@H](C)N(C)C(=O)[C@H](C)NC(=O)[C@@H](C)NC1=O`, for which, in data set [1], the Papp at 5 h, 50 µM was below 0.01 ×10⁻⁶ cm/s. The Papp A→B in data set [2] is below 0.14 ×10⁻⁶ cm/s.
As to `CC(C)C[C@H]1NC(=O)[C@@H](Cc2ccccc2)NC(=O)CN(C)C(=O)[C@H](C)N(C)C(=O)[C@H](Cc2ccc(O)cc2)NC(=O)[C@@H]2CCCN2C1=O`, the Papp at 5 h, 50 µM in data set [1] was found to be 0.03 ×10⁻⁶ cm/s. For the same compound, in data set [2], the Papp A→B is below 0.14 ×10⁻⁶ cm/s.
On the same counts, the results for `CC(C)C[C@@H]1NC(=O)[C@H](Cc2ccccc2)NC(=O)[C@H]([C@@H](C)O)NC(=O)CNC(=O)[C@H](C(C)C)NC(=O)[C@H](Cc2ccc(O)cc2)NC1=O` (cyclo(FLYVGT)) are 0.04 ×10⁻⁶ cm/s and 0.11 ×10⁻⁶ cm/s.
For `CC(C)C[C@@H]1NC(=O)[C@H](CC(C)C)N(C)C(=O)[C@@H](CC(C)C)N(C)C(=O)[C@H](Cc2ccc(O)cc2)NC(=O)[C@@H]2CCCN2C(=O)[C@H](CC(C)C)N(C)C1=O`, the Papp at 5 h, 50 µM in data set [1] turned out to be 2.3 ×10⁻⁶ cm/s. Moreover, in data set [2], the Papp A→B was 13.9 ×10⁻⁶ cm/s.
